# Measured values from ChEMBL document CHEMBL1201862, “PubChem BioAssay data set” (2004).
# Activity calls are given as the source filed them.
# Legend:
# [1] = system: HeLa; assay: Cytotoxicity counterscreen assay for transcriptional activators of heat shock protein 70 (Hsp70). [Related pubchem assays: 1203, 1252 ]; type: functional; settings: Homo sapiens;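 note: cells exposed to compound for 16 hours before readout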
# [2] = system: HEK293; assay: cells; settings: Homo sapiens;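 note: cells exposed to compound for 14 hours overnight before viability readout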
# [3] = molecular target: T1, Nucleotide-binding oligomerization domain-containing protein 1 (Homo sapiens, UniProt Q9Y239); assay: NOD1 signaling inhibitors, SAR follow-up, revised (AID 2333); type: functional
# T1 sequence (Q9Y239 whole entry): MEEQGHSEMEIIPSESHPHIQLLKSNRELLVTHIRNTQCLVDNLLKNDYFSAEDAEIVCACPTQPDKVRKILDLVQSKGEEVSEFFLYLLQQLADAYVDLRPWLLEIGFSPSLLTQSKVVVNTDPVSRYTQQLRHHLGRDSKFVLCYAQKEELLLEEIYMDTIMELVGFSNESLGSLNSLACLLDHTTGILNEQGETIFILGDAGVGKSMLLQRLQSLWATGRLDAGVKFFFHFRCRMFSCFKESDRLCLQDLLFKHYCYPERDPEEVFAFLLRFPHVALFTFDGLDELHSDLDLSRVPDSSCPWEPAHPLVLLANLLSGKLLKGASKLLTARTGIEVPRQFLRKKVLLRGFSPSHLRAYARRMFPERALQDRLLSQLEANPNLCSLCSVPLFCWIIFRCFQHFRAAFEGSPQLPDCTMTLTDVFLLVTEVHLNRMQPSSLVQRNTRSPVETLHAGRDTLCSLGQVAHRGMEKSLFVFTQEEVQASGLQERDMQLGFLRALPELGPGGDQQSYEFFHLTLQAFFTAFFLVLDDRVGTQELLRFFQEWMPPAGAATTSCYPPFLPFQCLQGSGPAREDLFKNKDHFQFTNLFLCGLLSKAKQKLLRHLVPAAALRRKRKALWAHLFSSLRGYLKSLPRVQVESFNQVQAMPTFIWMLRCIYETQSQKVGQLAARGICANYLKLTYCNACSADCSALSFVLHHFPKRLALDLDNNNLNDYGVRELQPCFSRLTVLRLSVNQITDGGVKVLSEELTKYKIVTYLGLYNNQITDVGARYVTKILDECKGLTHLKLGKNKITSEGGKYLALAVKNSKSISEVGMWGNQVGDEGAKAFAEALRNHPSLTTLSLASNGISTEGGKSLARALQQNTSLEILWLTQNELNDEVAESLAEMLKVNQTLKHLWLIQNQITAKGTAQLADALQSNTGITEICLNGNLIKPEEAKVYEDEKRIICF
# [4] = molecular target: Nucleotide-binding oligomerization domain-containing protein 2 (Homo sapiens, UniProt Q9HC29); assay: PubChem AID 2334; type: functional
# [5] = molecular target: Tumor necrosis factor (Homo sapiens, UniProt P01375); assay: TNFa-triggered NF-kB activation inhibitors, SAR follow-up, cell-based, revised (AID 2337); type: functional
# [6] = molecular target: Peroxisome proliferator-activated receptor gamma/Nuclear receptor coactivator 1 (Homo sapiens, UniProt P37231); type: functional;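 note: agonist potency as compounds enhance coactivator SRC-1 recruitment to PPARgamma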
# [7] = molecular target: Peroxisome proliferator-activated receptor gamma/Nuclear receptor coactivator 2 (Homo sapiens, UniProt P37231); type: functional;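 note: agonist potency for raising coactivator recruitment to the receptor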
# [8] = molecular target: Peroxisome proliferator-activated receptor gamma/Nuclear receptor coactivator 3 (Homo sapiens, UniProt P37231); type: functional;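 note: agonist potency for raising coactivator recruitment to the receptor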
# [9] = molecular target: Bcl-2-like protein 10 (Homo sapiens, UniProt Q9HD36); assay: displacers of TR3 peptide from Bcl-B, primary screen, selectivity assay for Bfl-1 inhibitor project, biochemical, fluorescence polarization, FITC-TR3 peptide (AID 748);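 note: fluorescence polarization from a fluorescein-labelled TR3 peptide binding purified Bcl-B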
# [10] = molecular target: T2, Calpain-2 catalytic subunit (Sus scrofa, UniProt P43367); assay: pig calpain II inhibitor potency, dose response, biochemical, fluorogenic peptide substrate (AID 1420); type: functional
# T2 sequence (P43367 whole entry): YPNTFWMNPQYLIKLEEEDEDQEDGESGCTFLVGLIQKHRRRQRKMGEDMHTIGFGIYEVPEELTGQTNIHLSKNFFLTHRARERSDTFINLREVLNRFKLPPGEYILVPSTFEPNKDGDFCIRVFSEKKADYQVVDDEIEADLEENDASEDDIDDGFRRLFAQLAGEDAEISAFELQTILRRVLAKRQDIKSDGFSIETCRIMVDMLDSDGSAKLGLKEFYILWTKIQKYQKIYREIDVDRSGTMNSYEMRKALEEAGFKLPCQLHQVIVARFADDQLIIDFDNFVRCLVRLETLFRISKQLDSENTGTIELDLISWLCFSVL
# [11] = molecular target: T3, Eukaryotic translation initiation factor 2-alpha kinase 3 (Homo sapiens, UniProt Q9NZJ5); assay: Counterscreen assay for PERK inhibitors: Dose response cell-based high throughput screening assay to measure inhibition of PERK at 6 hours. [Related pubchem assays: 1522, 1416 ]; type: functional
# T3 sequence (Q9NZJ5 whole entry): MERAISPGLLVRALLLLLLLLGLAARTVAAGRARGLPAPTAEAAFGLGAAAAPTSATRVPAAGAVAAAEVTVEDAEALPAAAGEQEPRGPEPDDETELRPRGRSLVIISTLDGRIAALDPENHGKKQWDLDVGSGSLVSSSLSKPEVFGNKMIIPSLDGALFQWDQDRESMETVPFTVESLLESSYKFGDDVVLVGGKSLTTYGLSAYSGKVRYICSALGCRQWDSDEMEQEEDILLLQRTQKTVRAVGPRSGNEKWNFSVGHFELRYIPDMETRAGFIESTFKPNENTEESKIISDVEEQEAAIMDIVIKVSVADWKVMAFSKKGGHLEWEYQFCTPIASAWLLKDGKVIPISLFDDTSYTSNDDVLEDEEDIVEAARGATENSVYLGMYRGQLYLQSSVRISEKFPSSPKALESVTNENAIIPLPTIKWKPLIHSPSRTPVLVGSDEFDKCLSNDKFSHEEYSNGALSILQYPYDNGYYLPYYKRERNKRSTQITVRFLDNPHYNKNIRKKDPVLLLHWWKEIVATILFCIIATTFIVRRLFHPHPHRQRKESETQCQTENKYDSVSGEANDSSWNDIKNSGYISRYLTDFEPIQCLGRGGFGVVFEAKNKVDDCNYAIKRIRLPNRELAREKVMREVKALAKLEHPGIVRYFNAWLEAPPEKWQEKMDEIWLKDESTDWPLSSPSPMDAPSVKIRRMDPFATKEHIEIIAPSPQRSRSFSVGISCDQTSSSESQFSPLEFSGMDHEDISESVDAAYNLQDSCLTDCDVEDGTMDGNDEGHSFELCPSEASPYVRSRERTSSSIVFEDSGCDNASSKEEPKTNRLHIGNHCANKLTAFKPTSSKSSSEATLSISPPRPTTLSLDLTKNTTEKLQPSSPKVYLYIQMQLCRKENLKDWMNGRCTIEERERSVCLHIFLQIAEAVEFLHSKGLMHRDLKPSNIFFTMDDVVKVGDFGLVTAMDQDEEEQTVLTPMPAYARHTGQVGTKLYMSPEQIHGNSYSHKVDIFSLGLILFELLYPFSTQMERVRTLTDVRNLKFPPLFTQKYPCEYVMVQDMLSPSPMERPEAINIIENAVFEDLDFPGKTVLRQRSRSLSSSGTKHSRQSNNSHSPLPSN
# [12] = molecular target: T3, Eukaryotic translation initiation factor 2-alpha kinase 3; assay: Dose response cell-based high-throughput screening assay to measure PERK inhibition. [Related pubchem assays: 1416 ]; type: functional
# Sequence of Bcl-2-like protein 10 (Q9HD36 whole entry): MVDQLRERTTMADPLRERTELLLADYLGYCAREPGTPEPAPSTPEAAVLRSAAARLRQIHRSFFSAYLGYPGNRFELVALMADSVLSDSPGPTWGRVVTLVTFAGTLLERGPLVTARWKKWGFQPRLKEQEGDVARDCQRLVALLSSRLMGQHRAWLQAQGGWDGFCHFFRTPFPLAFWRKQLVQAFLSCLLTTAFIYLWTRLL
# Sequence of Peroxisome proliferator-activated receptor gamma/Nuclear receptor coactivator 2 (P37231 whole entry): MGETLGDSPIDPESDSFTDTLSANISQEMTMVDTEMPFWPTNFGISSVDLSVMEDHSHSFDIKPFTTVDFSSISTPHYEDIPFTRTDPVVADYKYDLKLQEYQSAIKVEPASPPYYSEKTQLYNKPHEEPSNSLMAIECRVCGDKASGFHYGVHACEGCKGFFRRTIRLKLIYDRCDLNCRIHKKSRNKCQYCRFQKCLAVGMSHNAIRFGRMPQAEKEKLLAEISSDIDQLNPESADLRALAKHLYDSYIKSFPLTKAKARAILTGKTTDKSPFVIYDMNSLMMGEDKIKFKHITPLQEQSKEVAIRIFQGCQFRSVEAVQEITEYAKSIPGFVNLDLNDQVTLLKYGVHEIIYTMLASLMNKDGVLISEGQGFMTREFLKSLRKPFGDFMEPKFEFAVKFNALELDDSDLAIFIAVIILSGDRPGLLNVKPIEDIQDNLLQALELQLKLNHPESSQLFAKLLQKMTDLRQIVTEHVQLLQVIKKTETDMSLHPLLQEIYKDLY
# Sequence of Peroxisome proliferator-activated receptor gamma/Nuclear receptor coactivator 2 (Q15596 whole entry, further chain): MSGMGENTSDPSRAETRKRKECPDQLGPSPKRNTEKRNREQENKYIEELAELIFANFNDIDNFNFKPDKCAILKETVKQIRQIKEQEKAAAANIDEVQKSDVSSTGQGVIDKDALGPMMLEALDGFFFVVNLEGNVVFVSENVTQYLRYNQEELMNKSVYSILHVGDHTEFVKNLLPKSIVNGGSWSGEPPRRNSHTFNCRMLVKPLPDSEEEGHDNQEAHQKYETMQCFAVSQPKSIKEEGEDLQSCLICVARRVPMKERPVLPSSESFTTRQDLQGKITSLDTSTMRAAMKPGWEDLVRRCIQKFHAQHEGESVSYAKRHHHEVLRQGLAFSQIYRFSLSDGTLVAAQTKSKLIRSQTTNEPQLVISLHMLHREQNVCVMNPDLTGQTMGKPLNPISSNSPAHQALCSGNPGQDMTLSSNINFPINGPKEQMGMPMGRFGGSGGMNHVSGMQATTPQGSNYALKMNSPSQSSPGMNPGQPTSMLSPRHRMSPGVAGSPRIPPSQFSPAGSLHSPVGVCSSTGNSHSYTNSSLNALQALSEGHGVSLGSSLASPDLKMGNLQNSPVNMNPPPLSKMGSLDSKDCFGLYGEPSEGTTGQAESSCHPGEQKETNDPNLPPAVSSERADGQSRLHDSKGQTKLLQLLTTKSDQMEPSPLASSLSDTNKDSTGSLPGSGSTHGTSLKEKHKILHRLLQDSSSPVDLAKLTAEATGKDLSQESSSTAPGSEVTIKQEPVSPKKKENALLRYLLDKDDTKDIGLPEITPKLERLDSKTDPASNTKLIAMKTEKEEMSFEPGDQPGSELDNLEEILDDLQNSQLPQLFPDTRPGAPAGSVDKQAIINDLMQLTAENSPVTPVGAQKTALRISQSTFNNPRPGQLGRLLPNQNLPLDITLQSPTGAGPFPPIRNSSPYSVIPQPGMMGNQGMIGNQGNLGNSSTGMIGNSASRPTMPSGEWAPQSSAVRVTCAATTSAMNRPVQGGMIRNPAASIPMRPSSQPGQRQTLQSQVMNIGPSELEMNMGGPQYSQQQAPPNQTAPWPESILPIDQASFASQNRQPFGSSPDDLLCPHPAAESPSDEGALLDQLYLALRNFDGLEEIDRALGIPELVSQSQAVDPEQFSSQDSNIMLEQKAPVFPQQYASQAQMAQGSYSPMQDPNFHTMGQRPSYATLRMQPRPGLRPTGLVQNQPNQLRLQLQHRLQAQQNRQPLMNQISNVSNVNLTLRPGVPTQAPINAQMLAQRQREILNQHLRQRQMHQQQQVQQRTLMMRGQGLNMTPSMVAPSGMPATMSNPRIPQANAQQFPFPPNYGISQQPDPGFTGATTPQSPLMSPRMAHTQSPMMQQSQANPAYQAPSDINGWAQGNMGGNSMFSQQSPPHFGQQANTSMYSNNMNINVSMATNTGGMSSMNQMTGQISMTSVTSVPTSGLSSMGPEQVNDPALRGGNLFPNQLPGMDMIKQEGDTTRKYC
# Sequence of Peroxisome proliferator-activated receptor gamma/Nuclear receptor coactivator 3 (P37231 whole entry): as the sequence (P37231 whole entry) above
# Sequence of Peroxisome proliferator-activated receptor gamma/Nuclear receptor coactivator 3 (Q9Y6Q9 whole entry, further chain): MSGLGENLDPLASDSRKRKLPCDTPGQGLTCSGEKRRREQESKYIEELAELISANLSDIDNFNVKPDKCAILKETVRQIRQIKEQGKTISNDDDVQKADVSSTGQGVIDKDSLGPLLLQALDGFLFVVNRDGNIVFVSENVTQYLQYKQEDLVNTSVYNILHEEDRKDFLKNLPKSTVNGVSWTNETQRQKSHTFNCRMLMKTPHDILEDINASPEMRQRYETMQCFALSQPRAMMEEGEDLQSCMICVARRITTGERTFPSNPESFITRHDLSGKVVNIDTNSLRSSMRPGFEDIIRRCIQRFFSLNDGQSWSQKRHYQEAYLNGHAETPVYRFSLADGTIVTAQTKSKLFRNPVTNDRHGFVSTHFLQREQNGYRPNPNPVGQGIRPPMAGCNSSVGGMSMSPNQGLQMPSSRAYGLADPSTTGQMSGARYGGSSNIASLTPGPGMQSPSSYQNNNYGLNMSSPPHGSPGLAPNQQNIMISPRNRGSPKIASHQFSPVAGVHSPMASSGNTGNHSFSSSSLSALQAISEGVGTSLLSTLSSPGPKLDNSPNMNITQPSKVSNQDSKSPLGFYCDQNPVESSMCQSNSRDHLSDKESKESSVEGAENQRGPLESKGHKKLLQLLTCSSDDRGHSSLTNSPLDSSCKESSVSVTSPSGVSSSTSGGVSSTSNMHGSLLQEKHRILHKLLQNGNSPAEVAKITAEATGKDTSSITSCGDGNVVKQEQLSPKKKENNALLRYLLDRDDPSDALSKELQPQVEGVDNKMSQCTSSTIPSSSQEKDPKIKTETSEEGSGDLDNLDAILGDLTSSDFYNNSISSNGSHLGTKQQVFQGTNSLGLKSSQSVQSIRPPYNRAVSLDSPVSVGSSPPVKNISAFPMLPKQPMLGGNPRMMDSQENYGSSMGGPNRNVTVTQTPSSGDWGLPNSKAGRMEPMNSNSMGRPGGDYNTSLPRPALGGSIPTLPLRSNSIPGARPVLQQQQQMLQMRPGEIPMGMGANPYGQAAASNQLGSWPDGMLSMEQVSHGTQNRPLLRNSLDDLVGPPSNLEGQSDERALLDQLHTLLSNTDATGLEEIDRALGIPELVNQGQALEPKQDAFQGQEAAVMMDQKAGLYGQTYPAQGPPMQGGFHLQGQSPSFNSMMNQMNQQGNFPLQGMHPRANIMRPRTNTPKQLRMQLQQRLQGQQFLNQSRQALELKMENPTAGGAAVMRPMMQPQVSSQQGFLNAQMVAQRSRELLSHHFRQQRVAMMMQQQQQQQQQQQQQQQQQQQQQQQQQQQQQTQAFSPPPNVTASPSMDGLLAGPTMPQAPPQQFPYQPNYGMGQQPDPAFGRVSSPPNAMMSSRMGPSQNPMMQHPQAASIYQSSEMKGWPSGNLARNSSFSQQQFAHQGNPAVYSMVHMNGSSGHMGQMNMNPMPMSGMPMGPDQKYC
# Sequence of Tumor necrosis factor (P01375 whole entry): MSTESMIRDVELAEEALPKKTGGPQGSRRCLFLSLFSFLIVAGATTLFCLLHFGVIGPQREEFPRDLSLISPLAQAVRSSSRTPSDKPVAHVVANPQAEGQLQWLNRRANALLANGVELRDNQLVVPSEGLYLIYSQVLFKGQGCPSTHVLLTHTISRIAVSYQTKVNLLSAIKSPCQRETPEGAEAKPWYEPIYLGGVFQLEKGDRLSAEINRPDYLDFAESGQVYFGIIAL
structure (smiles),measurement,setting,value
COCC(=O)Nc1cccc(Br)c1,CC50,[1],> 99 µM (not active)
CC(C)C(=O)Nc1nc2ccccc2n1Cc1ccc(Cl)cc1,IC50,[2],> 20 µM (inactive)
same,IC50,[3],16.7 µM (active)
same,IC50,[4],> 20 µM (inactive)
same,IC50,[5],> 20 µM (inactive)
CCOC(=O)c1sc2nccc(N(C)C)c2c1/N=C/N(C)C,EC50,[6],> 79.4 µM (not active)
same,EC50,[7],> 79.4 µM (not active)
same,EC50,[8],> 79.4 µM (not active)
c1nnnn1C12CC3CC(CC(C3)C1)C2,IC50,[9],> 100 µM (inactive)
CCc1cc2c(=O)c(-c3nc(C)cs3)coc2cc1OC(C)C(=O)NCCO (stereo not drawn),EC50,[6],> 79.4 µM (not active)
same,IC50,[10],3.22 µM (not active)
same,EC50,[7],> 79.4 µM (not active)
same,EC50,[8],> 79.4 µM (not active)
N#Cc1c(NCCO)ccc([N+](=O)[O-])c1NCCO,EC50,[11],> 55.7 µM (not active)
same,EC50,[12],> 55.7 µM (not active)
CN(C)CC(c1ccccc1)c1ccccc1,EC50,[11],> 55.7 µM (not active)
same,EC50,[12],> 55.7 µM (not active)
Cc1ccc(N2CN=c3s/c(=C\c4cccnc4)c(=O)n3C2)cc1,IC50,[9],> 100 µM (inactive)
